In brackets after ≈: the same amount, converted by molar mass.
Columns and labels:
[1] = Human Liver Microsomal Stability (Test C); format: in vitro ADME; settings: human, liver microsomes
How it was run: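 CLint (μl/min/mg protein) derived from compound depletion in human liver microsomes following a published standardized early-DMPK protocol; replicate determinations given as arithmetic mean.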

[2] = Human Plasma Protein Binding (Test B); format: in vitro ADME; settings: fraction unbound (fu)
How it was run: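 Values given as % free (fu) in human plasma, using the method of Wernevik et al. (2020). For compounds tested more than once, the arithmetic mean is given.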

Solubility (Test F) = format: physicochemical; settings: arithmetic mean if run multiple times
Protocol: The assay was conducted according to the Solubility Assay described in pages 164-167 of Wernevik, J. et al., “A Fully Integrated Assay Panel for Early Drug Metabolism and Pharmacokinetics Profiling”, Assay and Drug Development Technologies, 2020, 18(4), 157-179. Data are reported in Table 36 as solubility ([…]. Where the assay was run multiple times for the same compound, the arithmetic mean is reported.

[3] = Rat Hepatocyte Stability (Test E); format: in vitro ADME; settings: rat, hepatocytes, geometric mean if run multiple times
How it was run: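 Intrinsic clearance in rat hepatocytes, expressed as μl/min/10^6 cells, following the literature integrated DMPK panel method. Repeat determinations combined as geometric mean.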

human RXFP1 = target: T1, human RXFP1 (Homo sapiens, UniProt Q9HBX9); assay: RXFP1 Hu cAMP (Test A); format: cell-based; parameters: expressed in transfected cells; host or cells: Jump-In T-REx CHO-K1 cells (ThermoFisher), induced with 10 ng/ml doxycycline for 24 h; settings: RXFP1 Hu cAMP; for EC50: read-out: Test A EC50
T1 sequence (Q9HBX9 1-757): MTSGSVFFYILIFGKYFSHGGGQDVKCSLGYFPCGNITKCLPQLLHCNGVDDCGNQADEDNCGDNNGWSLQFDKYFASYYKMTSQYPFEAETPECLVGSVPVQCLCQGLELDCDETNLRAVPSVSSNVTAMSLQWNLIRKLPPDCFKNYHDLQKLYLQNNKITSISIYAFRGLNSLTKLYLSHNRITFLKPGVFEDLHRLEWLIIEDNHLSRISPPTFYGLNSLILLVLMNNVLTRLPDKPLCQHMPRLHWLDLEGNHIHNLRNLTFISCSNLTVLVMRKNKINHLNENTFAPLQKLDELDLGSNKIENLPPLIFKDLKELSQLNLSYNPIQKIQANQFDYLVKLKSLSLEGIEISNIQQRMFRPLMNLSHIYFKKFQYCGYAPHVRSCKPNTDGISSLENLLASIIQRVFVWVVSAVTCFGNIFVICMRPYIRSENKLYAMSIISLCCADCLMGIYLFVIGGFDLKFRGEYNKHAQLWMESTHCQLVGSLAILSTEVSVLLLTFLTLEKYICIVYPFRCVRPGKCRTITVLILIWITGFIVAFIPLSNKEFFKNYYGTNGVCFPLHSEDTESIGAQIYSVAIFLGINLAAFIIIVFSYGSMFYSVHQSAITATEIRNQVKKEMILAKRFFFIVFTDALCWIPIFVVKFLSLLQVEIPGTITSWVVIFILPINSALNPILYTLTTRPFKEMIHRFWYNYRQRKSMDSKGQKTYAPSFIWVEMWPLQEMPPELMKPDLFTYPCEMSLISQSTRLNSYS
How it was run: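 CHO-K1 (Jump-In T-REx), RXFP1 induced w/ 10 ng/ml doxycycline 24 h, cryopreserved. 0.5 mM IBMX final. cAMP by HTRF, 2 h RT, std curve.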

Compound	microsomal CLint [1]	Test B Human Plasma Protein Binding (% free) [2]	solubility (Solubility (Test F))	hepatocyte CLint [3]	Test A Sinf (human RXFP1)	EC50 (human RXFP1)
COc1cc(F)c(O[C@H]2CC[C@@](C)(C(=O)O)CC2)cc1C(=O)N[C@@H]1[C@H]2CC[C@H](C2)[C@@H]1C(=O)N[C@H](C)C(C)C [Example 46]	12 µL/min/mg	7.6 % free	380 µM (≈ 202 µg/mL)	12 µL/min/1e6 cells	104%	71 nM
COc1cc(F)c(O[C@H]2CC[C@@](C)(C(=O)O)CC2)cc1C(=O)N[C@@H]1CCC[C@@H]1C(=O)NCC(C)(C)C#N [Example 69]	6.3 µL/min/mg	33 % free	970 µM (≈ 502 µg/mL)	6.4 µL/min/1e6 cells	93%	> 2700 nM
COc1cc(C#N)c(O[C@H]2CC[C@@](C)(C(=O)O)CC2)cc1C(=O)N[C@@H]1[C@H]2CC[C@H](C2)[C@@H]1C(=O)N[C@]12CC3CC(C[C@@](O)(C3)C1)C2 [Example 113]	11 µL/min/mg	28 % free	950 µM (≈ 589 µg/mL)	30 µL/min/1e6 cells		> 9400 nM
COc1cc(F)c(O[C@H]2CC[C@@H](C(=O)O)CC2)cc1C(=O)N[C@@H]1[C@H]2CC[C@H](C2)[C@@H]1C(=O)NC(C)C [Example 8, (1S,4s)-4-(2-Fluoro-5-(((1S,2R,3S,4R)-3-(isopropylcarbamoyl)bicyclo[2.2.1]heptan-2-yl)carbamoyl)-4-methoxyphenoxy)cyclohexane-1-carboxylic acid]	1.7 µL/min/mg	23 % free	980 µM (≈ 481 µg/mL)	38 µL/min/1e6 cells		> 50000 nM
COc1cc(C#N)c(O[C@H]2CC[C@@](C)(C(=O)O)CC2)cc1C(=O)N[C@@H]1[C@H]2CC[C@H](C2)[C@@H]1C(=O)NC12CC3C[C@H](C1)C[C@H](C3)C2 [Example 81]	97 µL/min/mg	2.7 % free	250 µM (≈ 151 µg/mL)	57 µL/min/1e6 cells	111%	31 nM
COc1cc(F)c(O[C@H]2CC[C@@H](C(=O)O)CC2)cc1C(=O)N[C@@H]1[C@H]2CC[C@H](C2)[C@@H]1C(=O)Nc1ccc(F)c(OC(F)(F)F)c1 [Example 21]	39 µL/min/mg	0.55 % free	850 µM (≈ 533 µg/mL)	28 µL/min/1e6 cells	110%	
COc1cc(F)c(O[C@H]2CC[C@@](C)(C(=O)O)CC2)cc1C(=O)N[C@@H]1CCC[C@@H]1C(=O)NCC1(CF)CC1 [Example 56, (1S,4s)-4-(2-Fluoro-5-(((1R,2S)-2-(((1-(fluoromethyl)cyclopropyl)methyl)carbamoyl)cyclopentyl)carbamoyl)-4-methoxyphenoxy)-1-methylcyclohexane-1-carboxylic acid]	< 3 µL/min/mg	21 % free	980 µM (≈ 512 µg/mL)	17 µL/min/1e6 cells	105%	12000 nM
COc1cc(F)c(O[C@H]2CC[C@@](C)(C(=O)O)CC2)cc1C(=O)N[C@@H]1COC[C@@H]1C(=O)Nc1ccc(F)c(C(F)(F)F)c1 [Example 52, (1R,4s)-4-(2-fluoro-5-(((3S,4R)-4-((4-fluoro-3-(trifluoromethyl)phenyl)carbamoyl)tetrahydrofuran-3-yl)carbamoyl)-4-methoxyphenoxy)-1-methylcyclohexane-1-carboxylic acid]	13 µL/min/mg	0.94 % free	890 µM (≈ 534 µg/mL)	34 µL/min/1e6 cells	108%	
COc1cc(F)c(O[C@H]2CC[C@@H](C(=O)O)CC2)cc1C(=O)N[C@@H]1[C@H]2CC[C@H](C2)[C@@H]1C(=O)Nc1cccc(OC(F)(F)F)c1 [Example 20]	28 µL/min/mg	0.74 % free	980 µM (≈ 596 µg/mL)	63 µL/min/1e6 cells	102%	48 nM
COc1cc(C#N)c(O[C@H]2CC[C@@](C)(C(=O)O)CC2)cc1C(=O)N[C@@H]1[C@H]2CC[C@H](C2)[C@@H]1C(=O)NC1(C2CC2)CC1 [Example 112]	6.8 µL/min/mg	16 % free	830 µM (≈ 456 µg/mL)	17 µL/min/1e6 cells	95%	470 nM
CCC1(CNC(=O)[C@H]2[C@@H]3CC[C@@H](C3)[C@H]2NC(=O)c2cc(O[C@H]3CC[C@@](C)(C(=O)O)CC3)c(C#N)cc2OC)CCC1 [Example 86]	64 µL/min/mg	4.1 % free	540 µM (≈ 305 µg/mL)	26 µL/min/1e6 cells	115%	20 nM

The remaining lines, values ahead:

microsomal CLint [1]	Test B Human Plasma Protein Binding (% free) [2]	solubility (Solubility (Test F))	hepatocyte CLint [3]	Test A Sinf (human RXFP1)	EC50 (human RXFP1)	Compound
15 µL/min/mg	0.93 % free	700 µM (≈ 440 µg/mL)	68 µL/min/1e6 cells	127%	310 nM	COc1cc(F)c(OCCCCC(=O)O)cc1C(=O)N[C@H]1[C@@H](C(=O)Nc2cccc(S(=O)(=O)C(F)(F)F)c2)[C@@H]2C=C[C@H]1C2 (racemic) [Example 451]
43 µL/min/mg	0.19 % free	< 7.3 µM	17 µL/min/1e6 cells		> 9400 nM	COc1cc(F)c(O[C@H]2CC[C@@](C)(C(=O)O)CC2)cc1C(=O)Nc1nn2cccnc2c1C(=O)NCC1(C)CCC1 [Example 217, (1s,4s)-4-(2-Fluoro-4-methoxy-5-((3-(((1-methylcyclobutyl)methyl)carbamoyl)pyrazolo[1,5-a]pyrimidin-2-yl)carbamoyl)phenoxy)-1-methylcyclohexane-1-carboxylic acid]
110 µL/min/mg	<0.36 % free	130 µM (≈ 82.4 µg/mL)	13 µL/min/1e6 cells	82%	590 nM	COc1cc(F)c(-c2ccc(C(N)=O)cc2)cc1C(=O)N[C@@H]1[C@H]2CC[C@H](C2)[C@@H]1C(=O)Nc1cccc(S(=O)(=O)C(F)(F)F)c1 [Example 434, 6-Fluoro-4-methoxy-N3-((1S,2R,3S,4R)-3-((3-((trifluoromethyl)sulfonyl)phenyl)carbamoyl)bicyclo[2.2.1]heptan-2-yl)-[1,1′-biphenyl]-3,4′-dicarboxamide]
< 3 µL/min/mg	0.20 % free	< 0.23 µM	20 µL/min/1e6 cells	143%	200 nM	COc1cc(F)c(O[C@H]2CC[C@@](C)(C(=O)O)CC2)cc1C(=O)Nc1cc2ccccc2cc1C(=O)NCC1(C)CCC1 [Example 215, (1s,4s)-4-(2-Fluoro-4-methoxy-5-((3-(((1-methylcyclobutyl)methyl)carbamoyl)naphthalen-2-yl)carbamoyl)phenoxy)-1-methylcyclohexane-1-carboxylic acid]
8 µL/min/mg	9.3 % free	210 µM (≈ 108 µg/mL)	120 µL/min/1e6 cells	75%	> 4300 nM	COc1cc(F)c(O[C@H]2CC[C@@H](C(=O)O)CC2)cc1C(=O)N[C@@H]1[C@H]2CC[C@H](C2)[C@@H]1C(=O)NCCC1CC1 [Example 176]
8.6 µL/min/mg	17 % free	> 1000 µM	39 µL/min/1e6 cells	95%	> 2700 nM	COc1cc(F)c(O[C@H]2CC[C@@H](C(=O)O)CC2)cc1C(=O)N[C@@H]1[C@H]2CC[C@H](C2)[C@@H]1C(=O)NC12CC(C1)C2 [Example 178]

Source: patent publication US11667602B2, “Compounds and their use” (AstraZeneca AB, priority 2020, dated 2023)
